The source of these data is publication PMC9203742 (Nature Communications, 2022).

Assay [1] addresses T1, mGlu1 P58H/N264H mutant (Rattus norvegicus, UniProt P23385, N264H/P58H).
T1 construct: expressed in transfected cells; host or cells: HEK293
Description: Fura-2 Ca2+ imaging in HEK293 cells expressing mGlu1 P58H/N264H. The following applies: 10 μM metal ion or metal complex. The class given is cell-based.

Assay [2] addresses T2, mGlu1 K61H/N264H mutant (Rattus norvegicus, UniProt P23385, K61H/N264H).
T2 construct: expressed in transfected cells; host or cells: HEK293
In words: Fura-2 Ca2+ imaging in HEK293 cells expressing mGlu1 K61H/N264H. It counts as cell-based. The following applies: 10 μM metal ion or metal complex.

The target of assay [3] is T3, mGlu1 E60H/N264H mutant (Rattus norvegicus, UniProt P23385, E60H/N264H).
T3 construct: expressed in transfected cells; host or cells: HEK293
In words: Fura-2 Ca2+ imaging in HEK293 cells expressing mGlu1 E60H/N264H. It counts as cell-based. Conditions: 10 μM metal ion or metal complex.

In assay [4] the test system is MLIs infected with AAV-hSyn-mGlu1^CBC. Description: sAP-mediated currents (firing rate) of MLIs infected with AAV-hSyn-mGlu1^CBC.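 Also: 10 µM Pd complex applied to the bath.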 It counts as cell-based, mouse. The following applies: AAV-hSyn-mGlu1CBC. The method, then:
(§1) To monitor the excitability of MLIs, sAP-mediated current responses were extracellulary recorded by a loose cell-attached voltage-clamp at a holding potential of 0 mV. Glass electrodes used for cell-attached recordings had resistances of 3–5 MΩ when filled with ACSF. The current recordings from AAV-infected cells were performed 1−2 weeks after infection. The EPSCs and sAP-mediated currents were recorded using an Axopatch 200B amplifier (Molecular Devices), and the pClamp system (version 9.2; Molecular Devices) was used for data acquisition and analysis. The signals were filtered at 1 kHz and digitized at 4 kHz for the evoked EPSCs and 10 kHz for the sAP-mediated currents.
(§2) Injection of viral solutions was performed as described previously with slight modifications. Briefly, under deep anesthesia, with an intraperitoneal injection of medetomidine (0.3 mg/kg), midazolam (4.0 mg/kg), and butorphanol (5.0 mg/kg), 4 µL of the solutions containing AAV mixture were directly injected into the vermis of cerebellar lobules V-VIII (200-300 µm in depth, 12 µL/h in rate) of WT mice (C57BL/6J, P20-P30) using glass pipette (30–40 µm in diameter) and microinjector (Nanoliter; World Precision Instruments). In all, 1−2 week after injection, the mice were used for each experiment.

For assay [5], the system named is MLIs infected with AAV-hSyn-mGlu1^WT. In words: sAP-mediated currents (firing rate) of MLIs infected with AAV-hSyn-mGlu1^WT.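 Also: 10 µM Pd complex applied to the bath.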 The class given is cell-based, mouse. The following applies: AAV-hSyn-mGlu1WT. The method, then: as §1, §2
Assay [6] deals with MLIs surrounded by mGlu1(N264H)-expressing Purkinje cells (AAV-L7-mGlu1^CBC). In words: sAP-mediated currents (firing rate) of MLIs in slices infected with AAV-L7-mGlu1^CBC.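 Also: 10 µM Pd complex applied to the bath.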 It counts as cell-based, mouse. Conditions: AAV-L7-mGlu1CBC. The method, then:
as §1, §2

The mark [7] stands for this setting: ratio of sAP-mediated currents Pd vs CTL.

Several values for one entry are separate records, joined by “and”; a condition that tells them apart may be missing. Identical values can stand only once.

T2 sequence (P23385 19-1199 K61H/N264H): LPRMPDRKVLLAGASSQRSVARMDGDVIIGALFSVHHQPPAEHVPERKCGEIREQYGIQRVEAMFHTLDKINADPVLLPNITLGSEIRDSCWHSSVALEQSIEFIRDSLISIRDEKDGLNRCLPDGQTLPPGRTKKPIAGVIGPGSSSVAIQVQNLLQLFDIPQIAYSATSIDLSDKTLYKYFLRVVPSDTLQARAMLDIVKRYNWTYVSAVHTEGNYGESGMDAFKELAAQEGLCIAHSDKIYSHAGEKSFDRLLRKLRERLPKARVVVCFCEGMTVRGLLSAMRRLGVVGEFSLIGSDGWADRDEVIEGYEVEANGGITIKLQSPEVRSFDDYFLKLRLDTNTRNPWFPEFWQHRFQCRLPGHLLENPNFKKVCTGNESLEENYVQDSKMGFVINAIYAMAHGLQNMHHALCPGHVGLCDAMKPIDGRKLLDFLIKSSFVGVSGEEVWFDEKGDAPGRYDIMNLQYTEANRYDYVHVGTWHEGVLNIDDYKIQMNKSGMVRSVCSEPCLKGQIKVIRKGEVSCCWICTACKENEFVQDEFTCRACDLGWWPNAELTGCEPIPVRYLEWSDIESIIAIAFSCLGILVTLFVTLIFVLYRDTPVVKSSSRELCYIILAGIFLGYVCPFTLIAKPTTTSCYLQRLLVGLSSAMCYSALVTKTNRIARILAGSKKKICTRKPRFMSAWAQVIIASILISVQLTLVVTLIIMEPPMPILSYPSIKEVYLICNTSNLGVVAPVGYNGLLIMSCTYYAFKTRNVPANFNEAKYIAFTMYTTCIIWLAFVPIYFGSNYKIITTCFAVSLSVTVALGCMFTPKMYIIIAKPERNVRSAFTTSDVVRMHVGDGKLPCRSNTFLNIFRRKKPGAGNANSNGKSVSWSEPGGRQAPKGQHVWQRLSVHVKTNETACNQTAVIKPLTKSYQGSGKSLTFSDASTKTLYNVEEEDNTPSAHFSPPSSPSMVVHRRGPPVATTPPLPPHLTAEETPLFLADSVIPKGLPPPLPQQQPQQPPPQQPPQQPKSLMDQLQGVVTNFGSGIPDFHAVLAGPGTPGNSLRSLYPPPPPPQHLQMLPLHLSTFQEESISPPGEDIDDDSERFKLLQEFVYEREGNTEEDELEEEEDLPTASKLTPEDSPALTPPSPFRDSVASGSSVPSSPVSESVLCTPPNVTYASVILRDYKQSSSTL
T3 sequence (P23385 19-1199 E60H/N264H): as the sequence (P23385 19-1199 K61H/N264H) above, with E42H, H43K counted along it
T1 sequence (P23385 19-1199 P58H/N264H): as the sequence (P23385 19-1199 K61H/N264H) above, with P40H, H43K counted along it

Consider `[Pd+2]` [Pd^2+], for which the “Receptor activation ([Ca2+]i change, Δratio)” value in assay [1], in assay [2] and in assay [3] was “also activated” throughout. Further, the “firing rate with Pd, AVE(Hz)” value in assay [4] (Pd) was 9.847 Hz; in assay [5] (Pd), 8.021 Hz; in assay [6] (Pd), 8.376 Hz. Also, the “number of sAP-mediated currents with Pd, AVE” value in assay [4] (Pd, average of 22 MLIs) was determined as 295.409; in assay [5] (Pd, average of 16 MLIs), 240.625; in assay [6] (Pd, average of 15 MLIs), 251.267. Besides, the “Pd/CTL, AVE” value in assay [4] (average of 22 MLIs) came out at 1.392; in assay [5] (average of 16 MLIs), 1.02; in assay [6] (average of 15 MLIs), 1.024. The “Pd/CTL, individual MLIs” value was 1.204 and 2.167 and 1.052 and 0.9801 and 1.6822 and 1.455 and 1.074 and 1.288 and 1.082 and 1.081 and 1.083 and 2.412 and 1.119 and 3.478 and 1.177 and 1.12 and 1.045 and 1.16 and 1.215 and 1.142 and 1.333 and 1.265 in assay [4] (setting [7]); 0.9466 and 0.8833 and 1.065 and 1.119 and 1.05 and 1.091 and 1.081 and 0.9958 and 0.8947 and 1.005 and 0.9161 and 0.8474 and 1.013 and 1.182 and 1.106 and 1.126 in assay [5] (setting [7]); 0.9181 and 1.134 and 0.9516 and 1.085 and 1.01 and 1.008 and 1.018 and 1.161 and 1.003 and 1.105 and 0.9786 and 0.9216 and 1.028 and 0.9928 and 1.051 in assay [6] (setting [7]). The “number of sAP-mediated currents with Pd, individual MLIs” value was 195 and 227 and 165 and 235 and 230 and 276 and 213 and 238 and 272 and 431 and 142 and 211 and 228 and 253 and 240 and 294 in assay [5] (Pd); 269 and 246 and 275 and 319 and 316 and 259 and 286 and 137 and 343 and 147 and 282 and 292 and 186 in assay [6] (Pd).
